Laboratory results: patent US10919935B2, “Antimicrobial peptide derived from myxinidin peptide and uses thereof” (INDUSTRY-ACADEMIC COOPERATION FOUNDATION, CHOSUN UNIVERSITY, priority 2015, dated 2021)
Residues, ends and D or L forms follow the SMILES beside them.

Columns and labels:
[1] = system: Staphylococcus aureus ATCC 25923; assay type: cell-based
Protocol: (§1) To compare the antimicrobial activity of the peptide produced by the method of Example 1, the inventors of the present invention measured the growth minimum inhibitory concentration (MIC), which is minimum concentration of the peptide showing no dissociation of bacterial cells.
(§2) Specifically, the bacterial strain described in the following Table 2 was purchased and cultured in each medium to a mid-log phase. Then, after dilution to bacterial cell concentration of 2×10^5 cells/100 μl, the cells were inoculated to a microtiter plate (NUNC, USA). Thereafter, myxinidin 1, myxinidin 2, or myxinidin 3 peptides which have been synthesized in Example 1 above was diluted, 1/2 times for each, with BSA (bovine serum albumin) solution in a 96-well plate. After adding the cells to a plate, the cells were cultured for 12 hours at 37° C. By using a microtiter plate reader (Merck Elisa reader, Germany), the absorbance was measured at a wavelength of 600 nm to determine the MIC value of each bacterial strain. As a control group, myxinidin as a mother peptide was subjected to the same processes as above and the MIC value of each bacterial strain was obtained.

[2] = system: Pseudomonas aeruginosa Isolated strain 5018; assay type: cell-based
Protocol: as §1, §2

[3] = system: Pseudomonas aeruginosa ATCC 27853; assay type: cell-based
Protocol: as §1, §2

[4] = system: Staphylococcus aureus CCARM 3114; assay type: cell-based
Protocol: as §1, §2

[5] = system: Salmonella typhimurium CCARM 8009; assay type: cell-based
Protocol: as §1, §2

[6] = system: Escherichia coli ATCC 25922; assay type: cell-based
Protocol: as §1, §2

[7] = system: Staphylococcus aureus CCARM 3709; assay type: cell-based
Protocol: as §1, §2

[8] = system: Escherichia coli CCARM 1238; assay type: cell-based
Protocol: as §1, §2

[9] = system: Pseudomonas aeruginosa Isolated strain 3592; assay type: cell-based
Protocol: as §1, §2

[10] = system: Escherichia coli CCARM 1229; assay type: cell-based
Protocol: as §1, §2

[11] = system: Salmonella typhimurium KCTC 1926; assay type: cell-based
Protocol: as §1, §2

[12] = system: Listeria monocytogenes KCTC 3710; assay type: cell-based
Protocol: as §1, §2

[13] = system: Salmonella typhimurium CCARM 8013; assay type: cell-based
Protocol: as §1, §2

S. aureus [14] = assay: Anti-biofilm activity (crystal violet); assay type: cell-based, Staphylococcus aureus
Protocol: (§3) To compare the antimicrobial activity of the peptide produced by the method of Example 1, the inventors of the present invention measured the biofilm inhibitory concentration value of the peptide showing no dissociation of bacterial cells.
(§4) Specifically, the Gram-negative bacteria and Gram-positive bacteria among the bacterial strains described in the above Table 2 were cultured in each medium to a mid-log phase. Then, after dilution to bacterial cell concentration of 5×10^5 cells/100 μl, the cells were inoculated to a microtiter plate (NUNC, USA). Thereafter, myxinidin 1, myxinidin 2, or myxinidin 3 peptides which have been synthesized in Example 1 above was diluted, 1/10 times for each, with physiological saline (PBS) solution in a 96-well plate. After adding the cells to a plate, the cells were cultured for 12 hours at 37° C. After removing the supernatant, the cells were fixed with 100% methanol and reacted for 2 hours with Crystal violet staining solution followed by rinsing for 3 times. Then, after dissolving in 95% ethanol, the absorbance was measured at a wavelength of 595 nm by using a microtiter plate reader (Merck Elisa reader, Germany) to determine the biofilm inhibitory concentration value of each bacterial strain. As a control group, myxinidin as a mother peptide was subjected to the same processes as above and the biofilm inhibitory concentration value of each bacterial strain was obtained.

S. aureus [15] = assay: MIC at salt concentration (Example 3); assay type: cell-based, Staphylococcus aureus
Protocol: (§5) To compare the antimicrobial activity of the peptide produced by the method of Example 1, the inventors of the present invention measured the minimum growth inhibitory concentration (MIC), which is minimum concentration of the peptide showing no dissociation of bacterial cells, at salt concentration.
as §2, with “above” for “following”, “was” for “was purchased and”, “BSA+150 mM sodium chloride (NaCl) solution, physiological saline (PBS) solution, or 10 mM sodium phosphate (SP)” for “BSA (bovine serum albumin)”

S. aureus 3114 = assay: MIC at salt concentration (Example 3); assay type: cell-based, Staphylococcus aureus
Protocol: as §5
as §2, with “above” for “following”, “was” for “was purchased and”, “BSA+150 mM sodium chloride (NaCl) solution, physiological saline (PBS) solution, or 10 mM sodium phosphate (SP)” for “BSA (bovine serum albumin)”

P. aeruginosa 5018 = assay: MIC at salt concentration (Example 3); assay type: cell-based, Pseudomonas aeruginosa
Protocol: as §5
as §2, with “above” for “following”, “was” for “was purchased and”, “BSA+150 mM sodium chloride (NaCl) solution, physiological saline (PBS) solution, or 10 mM sodium phosphate (SP)” for “BSA (bovine serum albumin)”

P. aeruginosa [16] = assay: MIC at salt concentration (Example 3); assay type: cell-based, Pseudomonas aeruginosa
Protocol: as §5
as §2, with “above” for “following”, “was” for “was purchased and”, “BSA+150 mM sodium chloride (NaCl) solution, physiological saline (PBS) solution, or 10 mM sodium phosphate (SP)” for “BSA (bovine serum albumin)”

P. aeruginosa 3592 = assay: MIC at salt concentration (Example 3); assay type: cell-based, Pseudomonas aeruginosa
Protocol: as §5
as §2, with “above” for “following”, “was” for “was purchased and”, “BSA+150 mM sodium chloride (NaCl) solution, physiological saline (PBS) solution, or 10 mM sodium phosphate (SP)” for “BSA (bovine serum albumin)”

P. aeruginosa [17] = assay: Anti-biofilm activity (crystal violet); assay type: cell-based, Pseudomonas aeruginosa
Protocol: as §3, §4

[18] = NaCl (BSA+150 mM sodium chloride)

CC[C@H](C)[C@H](NC(=O)[C@H](Cc1c[nH]c2ccccc12)NC(=O)[C@H](CCCCN)NC(=O)[C@@H](NC(=O)[C@@H](N)CCCCN)[C@@H](C)CC)C(=O)N[C@@H](CC(C)C)C(=O)N[C@@H](CCCCN)C(=O)N[C@@H](Cc1ccc(O)cc1)C(=O)N[C@@H](Cc1c[nH]c2ccccc12)C(=O)N[C@@H](CCCCN)C(=O)N[C@@H](Cc1c[nH]c2ccccc12)C(=O)N[C@@H](CO)C(N)=O [Myxinidin 2, KIKWILKYWKWS-NH2] (H-KIKWILKYWKWS-NH2; N-terminus assumed)
Minimum growth inhibitory concentration [1]: 0.25 µM | Minimum growth inhibitory concentration [2]: 4 µM | Minimum growth inhibitory concentration [3]: 4 µM | Minimum growth inhibitory concentration [4]: 32 µM | Minimum growth inhibitory concentration [5]: 8 µM | Minimum growth inhibitory concentration [6]: 1 µM | Minimum growth inhibitory concentration [7]: 2 µM | Minimum growth inhibitory concentration [8]: 4 µM | Minimum growth inhibitory concentration [9]: 8 µM | Minimum growth inhibitory concentration [10]: 2 µM | Minimum growth inhibitory concentration [11]: 2 µM | Minimum growth inhibitory concentration [12]: 4 µM | Minimum growth inhibitory concentration [13]: 16 µM | Biofilm forming ability (S. aureus [14]; peptide 0.25 μM): 100% | Biofilm forming ability (S. aureus [14]; peptide 0.5 μM): 97% | Biofilm forming ability (S. aureus [14]; peptide 1 μM): 97% | Biofilm forming ability (S. aureus [14]; peptide 2 μM): 97% | Biofilm forming ability (S. aureus [14]; peptide 4 μM): 93% | Biofilm forming ability (S. aureus [14]; peptide 8 μM): 89% | Biofilm forming ability (S. aureus [14]; peptide 16 μM): 24% | Biofilm forming ability (S. aureus [14]; peptide 32 μM): 15% | Antimicrobial activity (MIC) according to salt concentration (S. aureus [15]; [18]): 0.25 | Antimicrobial activity (MIC) according to salt concentration (S. aureus [15]; PBS): 1 | Antimicrobial activity (MIC) according to salt concentration (S. aureus [15]; SP (10 mM sodium phosphate)): 1 | Antimicrobial activity (MIC) according to salt concentration (S. aureus 3114; [18]): >32 | Antimicrobial activity (MIC) according to salt concentration (S. aureus 3114; PBS): 16 | Antimicrobial activity (MIC) according to salt concentration (S. aureus 3114; SP (10 mM sodium phosphate)): 8 | Antimicrobial activity (MIC) according to salt concentration (P. aeruginosa 5018; [18]): 16 | Antimicrobial activity (MIC) according to salt concentration (P. aeruginosa 5018; PBS): 4 | Antimicrobial activity (MIC) according to salt concentration (P. aeruginosa 5018; SP (10 mM sodium phosphate)): 2 | Antimicrobial activity (MIC) according to salt concentration (P. aeruginosa [16]; [18]): 8 | Antimicrobial activity (MIC) according to salt concentration (P. aeruginosa [16]; PBS): 4 | Antimicrobial activity (MIC) according to salt concentration (P. aeruginosa [16]; SP (10 mM sodium phosphate)): 8 | Antimicrobial activity (MIC) according to salt concentration (P. aeruginosa 3592; [18]): 16 | Antimicrobial activity (MIC) according to salt concentration (P. aeruginosa 3592; PBS): 8 | Antimicrobial activity (MIC) according to salt concentration (P. aeruginosa 3592; SP (10 mM sodium phosphate)): 8 | Biofilm forming ability (P. aeruginosa [17]; peptide 0.25 μM): 100% | Biofilm forming ability (P. aeruginosa [17]; peptide 0.5 μM): 98% | Biofilm forming ability (P. aeruginosa [17]; peptide 1 μM): 95% | Biofilm forming ability (P. aeruginosa [17]; peptide 2 μM): 83% | Biofilm forming ability (P. aeruginosa [17]; peptide 4 μM): 29% | Biofilm forming ability (P. aeruginosa [17]; peptide 8 μM): 13% | Biofilm forming ability (P. aeruginosa [17]; peptide 16 μM): 5% | Biofilm forming ability (P. aeruginosa [17]; peptide 32 μM): 5%
